# Test results from patent US20100286247A1, “Methods of Protection from Oxidative Stress” (Trustees of Boston University, priority 2005, published 2010).
# {P} = phosphate
# Assays:
# [1] = system: human dermal fibroblasts; conditions: treatment for 7 days, Li et al.; cited from earlier work
# [2] = system: primary human newborn dermal fibroblasts; assay: Determination of cell yields (Coulter counts); type: cell-based
# Experimental: (§1) Cell culture followed previously published methods.^92 Primary human newborn dermal fibroblasts were cultured from neonatal circumcised foreskin specimens. The skin samples were treated overnight in a 0.25% trypsin solution at 4° C. to separate the epidermis from the dermis. The separated dermis was then cut into pieces and plated onto etched plastic tissue culture dishes. Primary culture medium consisted of DMEM supplemented with 10% bovine CS, 50 U/ml penicillin and 50 μg/ml streptomycin sulfate. […] Secondary culture medium consisted of DMEM supplemented with 10% CS.
# Equal numbers of fibroblasts were seeded into 32 mm culture dishes, and paired dishes were treated with pTT or diluent control as described above. At 24, 48 and 72 hours of treatment, the cells were harvested by trypsinization and counted in an automated cell counter (Coulter Z Series, Beckman Coulter, Inc., Fullerton, Calif.). The experiments were conducted in parallel with the MTS assay, using the same donor cells.
# Cell yields of pTT-treated fibroblasts were compared to diluent using 2-way ANOVA and a total of four different experiments, to identify significant difference between treatment groups as a function of cell number and time. The parallel MTS assay also utilized the 2-way ANOVA, to compare changes in OD at 492 nm as a function of time and treatment modality. […]
# [3] = system: S91 melanoma cells, cultured melanocytes, guinea pig skin; conditions: solutions of pTT; cited from earlier work
# [4] = system: GPX mRNA; assay: Northern blot analysis of antioxidant enzyme mRNA: GPX; type: cell-based, human; conditions: 100 μM pTT, 8-72 hours
# Experimental: as §1
# (§2) Purified 5′-phosphorylated thymidine dinucleotides (pTT) (Midland Certified Reagents, Inc., Texas) purified by gel filtration and analyzed by mass spectroscopy, were obtained in lyophilized form. […] The stock solution was syringe filter-sterilized through a 0.2 μm pore filter and spectrophotometrically analyzed (absorbance at 260 and 280 nm) to determine the concentration, and frozen in aliquots at −20° C. […]
# (§3) Cells were harvested in Trizol (Gibco BRL, Gaithersburg, Md.) and stored at −70° C. […] RNA solutions were measured by spectrophotometer readings at 260 nm and 280 nm to determine concentration and purity. […]
# (§4) Northern and western films as well as stained membranes and pictures of ethidium bromide-stained gels were digitally scanned and analyzed by densitometry. […]
# [5] = system: SOD1 mRNA; assay: Northern blot analysis of antioxidant enzyme mRNA: SOD1; type: cell-based, human; conditions: 100 μM pTT, 8-72 hours, three donors
# Experimental: as §1, §2, §3, §4
Substance,cells expressing senescence-associated-β-galactosidase after prolonged treatment [1],"rate of fibroblast growth (cell yields) during treatment vs diluent ([2]; 100 μM pTT, 24-72 hours, 2-way ANOVA p=0.0079)","growth after replating in regular medium vs diluent-pretreated cells ([2]; 72 hours pretreatment with 100 μM pTT, no H2O2, p=0.0006)",melanin production [3],GPX mRNA level compared to diluent [4],SOD1 mRNA level compared to diluent [5]
"pGTTAGGGTTAG (5' {P}, sugars by position and backbone not given here) [TO]",over 60%,–,–,–,–,–
5′-phosphorylated thymidine dinucleotides [pTT],–,significantly decreased,significantly stimulated growth,enhanced melanin production,remain unchanged,no difference between pTT- and diluent-treated cells
